From patent US20260248881A1, “PHARMACEUTICAL COMPOSITION COMPRISING FOXM1 INHIBITOR AND IMMUNE CHECKPOINT INHIBITOR FOR PREVENTING OR TREATING CANCER” (National Cancer Center, priority 2022, published 2026)

Target: T1, FOXM1 (Homo sapiens, UniProt Q08050)
T1 construct: FLAG; expressed in transfected cells; host or cells: H1299 and PC9 cells
T1 sequence (Q08050 1-748 isoform Q08050-2): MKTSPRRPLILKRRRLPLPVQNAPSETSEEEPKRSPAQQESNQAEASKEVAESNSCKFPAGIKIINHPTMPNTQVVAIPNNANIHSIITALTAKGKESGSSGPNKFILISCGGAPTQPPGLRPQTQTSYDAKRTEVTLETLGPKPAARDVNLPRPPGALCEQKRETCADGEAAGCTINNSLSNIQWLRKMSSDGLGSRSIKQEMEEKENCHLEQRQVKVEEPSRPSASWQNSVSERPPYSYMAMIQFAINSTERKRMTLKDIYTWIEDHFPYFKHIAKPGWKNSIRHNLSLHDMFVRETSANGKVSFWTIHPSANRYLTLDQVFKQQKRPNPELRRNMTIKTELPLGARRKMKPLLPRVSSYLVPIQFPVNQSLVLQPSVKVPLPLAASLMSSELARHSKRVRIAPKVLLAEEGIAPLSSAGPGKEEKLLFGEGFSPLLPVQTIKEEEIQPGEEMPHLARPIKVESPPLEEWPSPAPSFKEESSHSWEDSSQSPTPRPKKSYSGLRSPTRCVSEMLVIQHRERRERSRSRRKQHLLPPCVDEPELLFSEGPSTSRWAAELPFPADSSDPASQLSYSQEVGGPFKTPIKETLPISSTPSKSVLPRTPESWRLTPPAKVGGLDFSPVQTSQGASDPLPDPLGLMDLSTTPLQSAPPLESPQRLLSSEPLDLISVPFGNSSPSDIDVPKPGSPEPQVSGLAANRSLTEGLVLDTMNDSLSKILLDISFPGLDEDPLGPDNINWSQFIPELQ
Assay: FOXM1 protein levels and nuclear translocation (nuclear cytoplasmic fractionation, Western blot, ICC)
Type: cell-based
Conditions: for FOXM1 overexpression decreased by: TST-treated cells; for restoration of FOXM1 levels by overexpression of FOXM1 in treated cells: compared to mock transfection
Procedure: To confirm protein subcellular localization, lysis of H1299 and PC9 cell pellets was performed in Buffer A (10 mM HEPES, 10 mM KCl, 1.5 mM MgCl2, 0.5 mM dithiothreitol (DTT), and 0.05% IGEPAL CA-630 (pH 7.9)) for 10 minutes. The Buffer A lysate was centrifuged at 1,000×g for 10 minutes at 4° C. to collect the nuclear fraction. After removal of the cytosolic fraction, buffer B containing 5 mM HEPES, 0.2 mM EDTA, 1.5 mM MgCl2, 0.5 mM DTT, and 26% glycerol (v/v) (pH 7.9) was added to the nuclear fraction and lysed on ice for 30 minutes.
Cells were lysed in RIPA buffer supplemented with complete mini protease inhibitor cocktail (#04693124001; Roche, Basel, Switzerland) and kept on ice for 30 minutes. Equal amounts of protein were evenly loaded and analyzed by sodium dodecyl sulfate-polyacrylamide gel electrophoresis (SDS-PAGE), and transferred to polyvinylidene difluoride (PVDF) membranes (#IPVH 00010; Millipore, Billerica, MA, USA) at 100 V for 1 hour. Primary antibodies (Santa Cruz Biotechnology, Texas, USA) specific for FOXM1 (#sc-271746), cyclin E1 (#sc-481), α-tubulin (#sc-8035), and β-actin (#sc-47778); PD-L1 (#13684S), cyclin D1 (#2978S), cyclin B1 (#4138S), c-MYC (#5605S), and poly(ADP-ribose) polymerase (PARP, #9542S; Cell Signaling Technology, Beverly, MA, USA) were used to probe proteins of interest. A horseradish-peroxidase-conjugated secondary antibodies specific to the primary antibody was used to detect proteins using pico-enhanced chemiluminescence substrate (#34577; Thermo Fisher Scientific).
Cells were fixed in 4% paraformaldehyde (#30525-89-4; FUJIFILM Wako Chemical, Wako, Japan) for 15 minutes and blocked with 1% bovine serum albumin (BSA) in phosphate-buffered saline-0.01% Tween-20 (PBS-T) to reduce nonspecific antibody binding. Cells were then incubated overnight with an anti-PD-L1 antibody (#14598382; eBioscience, San Diego, CA, USA) diluted 1:200 and an anti-FOXM1 antibody (#sc-271746; Santa Cruz Biotechnology) diluted 1:50, followed by incubation with an Alexa Fluor 488-labeled secondary antibody (#A11029; Thermo Fisher Scientific) for 1 hour. Nuclei were stained with Hoechst 33342. After incubation, cells were washed with PBS and mounted on glass slides using Prolong Glass Antifade mounting medium (#P36982; Thermo Fisher Scientific). Confocal microscopy was performed using a Zeiss 730 Meta microscope (Carl Zeiss, Oberkochen, Germany) and analyzed using Axiovision software (Carl Zeiss).

**Q.** thiostrepton [TST] was tested. Which “FOXM1 overexpression decreased by” value (H1299) did it give?
**A.** 63.7%

**Q.** And the “restoration of FOXM1 levels by overexpression of FOXM1 in treated cells” value (H1299)?
**A.** 84.33%

**Q.** And the “protein levels and nuclear translocation of FOXM1” value (H1299 and PC9, TST 5 μM in the presence of IFN-γ 20 ng mL-1, or siFOXM1)?
**A.** decreased the protein levels and nuclear translocation of FOXM1

**Q.** And the “FOXM1 overexpression decreased by” value (PC9)?
**A.** 44%

**Q.** What about the “restoration of FOXM1 levels by overexpression of FOXM1 in treated cells” value (PC9) of the same substance?
**A.** 57.56%
